Test results: ChEMBL document CHEMBL4619760, “Anti-inflammatory Efficacy of Combined Natural Alkaloid Berberine and S1PR Modulator Fingolimod at Low Doses in Ulcerative Colitis Preclinical Models” (J Nat Prod, 2020)
Calls of active or inactive are those of the source. No cut-off for these calls is given here.

Tests used:
[1] = (§1) Toxicity in DSS-induced C57BL/6 mouse model of chronic relapsing colitis assessed as induction of abnormalities in lung at 0.15 mg/kg, po administered once daily for 30 days starting from day 13 post DSS-challenge cotreated with 20 mg/kg berberine by hematoxylin and eosin staining based light microscopic analysis; type: organism-based; conditions: in vivo, 720 h
Mus musculus [2] = assay: Antiinflammatory activity against DSS-induced C57BL/6 mouse model of subchronic relapsing colitis assessed as reduction in S1PR1 mRNA level at 0.15 mg/kg, po administered once daily for 14 days starting from day 5 post DSS-challenge cotreated with 20 mg/kg berberine by RT-qPCR analysis; type: functional, organism-based
Mus musculus [3] = assay: Antiinflammatory activity against DSS-induced C57BL/6 mouse model of subchronic relapsing colitis assessed as reduction in TNFalpha mRNA level at 0.3 mg/kg, po administered once daily for 14 days starting from day 5 post DSS-challenge by RT-qPCR analysis; type: functional, organism-based
[4] = Toxicity in DSS-induced C57BL/6 mouse model of chronic relapsing colitis assessed as induction of abnormalities in liver at 0.3 mg/kg, po administered once daily for 30 days starting from day 13 post DSS-challenge by hematoxylin and eosin staining based light microscopic analysis; type: organism-based; conditions: in vivo, 720 h
Mus musculus [5] = assay: Antiinflammatory activity against DSS-induced C57BL/6 mouse model of subchronic relapsing colitis assessed as reduction in TNFalpha mRNA level at 0.15 mg/kg, po administered once daily for 14 days starting from day 5 post DSS-challenge cotreated with 20 mg/kg berberine by RT-qPCR analysis; type: functional, organism-based
Mus musculus [6] = assay: Anti-colitis activity against DSS-induced C57BL/6 mouse model of chronic relapsing colitis assessed as reduction in stool bleeding at 0.15 mg/kg, po administered once daily for 30 days starting from day 13 post DSS-challenge cotreated with 20 mg/kg berberine and measured on day 38; type: functional, organism-based
Mus musculus [7] = assay: Anti-colitis activity against DSS-induced C57BL/6 mouse model of chronic relapsing colitis assessed as reversal of DSS-induced colon shortening at 0.3 mg/kg, po administered once daily for 30 days starting from day 13 post DSS-challenge; type: functional, organism-based
[8] = Toxicity in DSS-induced C57BL/6 mouse model of chronic relapsing colitis assessed as induction of abnormalities in brain at 0.3 mg/kg, po administered once daily for 30 days starting from day 13 post DSS-challenge by hematoxylin and eosin staining based light microscopic analysis; type: organism-based; conditions: in vivo, 720 h
Mus musculus [9] = assay: Antiinflammatory activity against DSS-induced C57BL/6 mouse model of subchronic relapsing colitis assessed as reduction in IL17 mRNA level at 0.3 mg/kg, po administered once daily for 14 days starting from day 5 post DSS-challenge by RT-qPCR analysis; type: functional, organism-based
Mus musculus [10] = assay: Anti-colitis activity against DSS-induced C57BL/6 mouse model of subchronic relapsing colitis assessed as reduction in spleen swelling at 0.3 mg/kg, po administered once daily for 14 days starting from day 5 post DSS-challenge; type: functional, organism-based
Mus musculus [11] = assay: Anti-colitis activity against DSS-induced C57BL/6 mouse model of chronic relapsing colitis assessed as reduction in stool bleeding at 0.3 mg/kg, po administered once daily for 30 days starting from day 13 post DSS-challenge measured on day 38; type: functional, organism-based
Mus musculus [12] = assay: Anti-colitis activity against DSS-induced C57BL/6 mouse model of chronic relapsing colitis assessed as reduction in disease activity index at 0.3 mg/kg, po administered once daily for 30 days starting from day 13 post DSS-challenge and measured on day 43; type: functional, organism-based
Mus musculus [13] = assay: Anti-colitis activity against DSS-induced C57BL/6 mouse model of chronic relapsing colitis assessed as reduction in stool consistency score at 0.15 mg/kg, po administered once daily for 30 days starting from day 13 post DSS-challenge cotreated with 20 mg/kg berberine measured on day 24; type: functional, organism-based
Mus musculus [14] = assay: Anti-colitis activity against DSS-induced C57BL/6 mouse model of chronic relapsing colitis assessed as reduction in stool consistency score at 0.3 mg/kg, po administered once daily for 30 days starting from day 13 post DSS-challenge measured on day 43; type: functional, organism-based
Mus musculus [15] = assay: Anti-colitis activity against DSS-induced C57BL/6 mouse model of subchronic relapsing colitis assessed as reduction in colon swelling at 0.3 mg/kg, po administered once daily for 14 days starting from day 5 post DSS-challenge; type: functional, organism-based
Mus musculus [16] = assay: (§2) Anti-colitis activity against DSS-induced C57BL/6 mouse model of subchronic relapsing colitis assessed as reduction in stool consistency score at 0.15 mg/kg, po administered once daily for 14 days starting from day 5 post DSS-challenge cotreated with 20 mg/kg berberine and measured after day 12 to day 18; type: functional, organism-based
Mus musculus [17] = assay: as §2, with “bleeding” for “consistency”; type: functional, organism-based
[18] = target: Signal transducer and activator of transcription 3 (Homo sapiens) (UniProt P40763); assay: Inhibition of STAT3 activation in human THP1 cells assessed as reduction in LPS-induced phosphorylated STAT3 expression at 0.5 uM cotreated with 0.5 uM berberine incubated for 1 hr followed by LPS challenge and measured after 4 to 6 hrs by Western blot analysis; type: cell-based; conditions: THP-1
Signal transducer and activator of transcription 3 (Homo sapiens), sequence (P40763 whole entry): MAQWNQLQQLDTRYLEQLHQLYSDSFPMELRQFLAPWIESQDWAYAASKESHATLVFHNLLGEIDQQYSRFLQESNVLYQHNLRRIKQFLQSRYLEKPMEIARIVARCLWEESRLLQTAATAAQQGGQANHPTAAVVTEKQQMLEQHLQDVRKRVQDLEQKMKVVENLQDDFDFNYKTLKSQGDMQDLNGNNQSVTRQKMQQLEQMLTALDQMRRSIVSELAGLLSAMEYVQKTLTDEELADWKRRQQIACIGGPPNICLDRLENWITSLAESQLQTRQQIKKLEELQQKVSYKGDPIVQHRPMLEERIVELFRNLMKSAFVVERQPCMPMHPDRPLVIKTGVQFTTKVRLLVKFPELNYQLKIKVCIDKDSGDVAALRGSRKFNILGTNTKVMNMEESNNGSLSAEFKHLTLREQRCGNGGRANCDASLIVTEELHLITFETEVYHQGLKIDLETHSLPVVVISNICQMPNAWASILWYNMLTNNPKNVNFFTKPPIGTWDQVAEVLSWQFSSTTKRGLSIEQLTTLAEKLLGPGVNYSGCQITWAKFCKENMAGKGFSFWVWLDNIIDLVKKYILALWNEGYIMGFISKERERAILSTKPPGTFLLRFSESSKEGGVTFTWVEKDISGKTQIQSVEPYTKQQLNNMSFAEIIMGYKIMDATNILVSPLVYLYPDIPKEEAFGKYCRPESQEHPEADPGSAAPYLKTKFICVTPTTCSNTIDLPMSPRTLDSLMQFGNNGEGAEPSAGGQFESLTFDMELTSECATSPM

Mus musculus [19] = assay: Anti-colitis activity against DSS-induced C57BL/6 mouse model of chronic relapsing colitis assessed as reduction in stool bleeding at 0.15 mg/kg, po administered once daily for 30 days starting from day 13 post DSS-challenge cotreated with 20 mg/kg berberine and measured on day 43; type: functional, organism-based
Mus musculus [20] = assay: Effect on total S1PR1 expression in DSS-induced C57BL/6 mouse model of subchronic relapsing colitis at 0.3 mg/kg, po administered once daily for 14 days starting from day 5 post DSS-challenge by Western blot analysis; type: ADME, organism-based; conditions: in vivo, 336 h
[21] = as §1, with “brain” for “lung”; type: organism-based; conditions: in vivo, 720 h
[22] = as §1, with “liver” for “lung”; type: organism-based; conditions: in vivo, 720 h
Mus musculus [23] = assay: Anti-colitis activity against DSS-induced C57BL/6 mouse model of subchronic relapsing colitis assessed as reduction in DSS-induced colon swelling at 0.3 mg/kg, po administered once daily for 30 days starting from day 13 post DSS-challenge; type: functional, organism-based
Mus musculus [24] = assay: Antiinflammatory activity against DSS-induced C57BL/6 mouse model of subchronic relapsing colitis assessed as reduction in S1PR1 mRNA level at 0.3 mg/kg, po administered once daily for 14 days starting from day 5 post DSS-challenge by RT-qPCR analysis; type: functional, organism-based
Mus musculus [25] = assay: Anti-colitis activity against DSS-induced C57BL/6 mouse model of subchronic relapsing colitis assessed as reduction in phosphorylated STAT3 level at 0.3 mg/kg, po administered once daily for 14 days starting from day 5 post DSS-challenge by Western blot analysis; type: functional, organism-based
Mus musculus [26] = assay: Anti-colitis activity against DSS-induced C57BL/6 mouse model of subchronic relapsing colitis assessed as reduction in DSS-induced colon shortening at 0.3 mg/kg, po administered once daily for 14 days starting from day 5 post DSS-challenge; type: functional, organism-based
Mus musculus [27] = assay: Anti-colitis activity against DSS-induced C57BL/6 mouse model of subchronic relapsing colitis assessed as effect on body weight at 0.15 mg/kg, po administered once daily for 14 days starting from day 5 post DSS-challenge cotreated with 20 mg/kg berberine and measured after day 12 to day 18; type: functional, organism-based

For `CCCCCCCCc1ccc(CCC(N)(CO)CO)cc1.Cl` [FINGOLIMOD HYDROCHLORIDE], which Activity [1] is on record?
Its Activity is “Non-Toxic”.

What about the Activity (Mus musculus [2]) of the same molecule?
Its Activity is “Active”.

And the Activity (Mus musculus [3])?
The Activity was “Active”.

What about the Activity [4] of the same molecule?
Its Activity is “Non-Toxic”.

What about the Activity (Mus musculus [5]) of the same molecule?
The Activity was “Active”.

And the Activity (Mus musculus [6])?
The Activity was “Active”.

What about the Activity (Mus musculus [7]) of the same molecule?
Its Activity is “Active”.

And the Activity [8]?
The Activity was “Non-Toxic”.

What about the Activity (Mus musculus [9]) of the same molecule?
Its Activity is “Active”.

What about the Activity (Mus musculus [10]) of the same molecule?
Its Activity is “inactive”.

What about the Activity (Mus musculus [11]) of the same molecule?
Its Activity is “Active”.

And the Activity (Mus musculus [12])?
The Activity was “Active”.

What about the Activity (Mus musculus [13]) of the same molecule?
Its Activity is “Active”.

And the Activity (Mus musculus [14])?
The Activity was “Active”.

What about the Activity (Mus musculus [15]) of the same molecule?
The Activity was “inactive”.

What about the Activity (Mus musculus [16]) of the same molecule?
Its Activity is “Active”.

And the Activity (Mus musculus [17])?
Its Activity is “Active”.

What about the inhibition [18] of the same molecule?
The inhibition was “Active”.

And the Activity (Mus musculus [19])?
Its Activity is “Active”.

What about the Activity (Mus musculus [20]) of the same molecule?
Its Activity is “Non-Toxic”.

What about the Activity [21] of the same molecule?
The Activity was “Non-Toxic”.

What about the Activity [22] of the same molecule?
Its Activity is “Non-Toxic”.

What about the Activity (Mus musculus [23]) of the same molecule?
The Activity was “inactive”.

And the Activity (Mus musculus [24])?
The Activity was “Active”.

And the Activity (Mus musculus [25])?
The Activity was “Active”.

What about the Activity (Mus musculus [26]) of the same molecule?
The Activity was “Active”.

What about the Activity (Mus musculus [27]) of the same molecule?
Its Activity is “inactive”.
